Experimental data taken from patent US6156700A, “3-(1,2-Benzisothiazol- and isoxazol-5-yl)-2,4(1H,3H)-pyrimidinedione or thione and 3-(1,2-benzisothiazol- and isoxazol-5-yl)-4(3H)-pyrimidinone or thione herbicidal agents” (American Cyanmid Company, priority 1998, dated 2000).

How the values were obtained:
GLXMA [1] = assay: Postemergence herbicidal evaluation; format: in vivo
ORYSAT [2] = assay: Preemergence herbicidal evaluation; format: in vivo, Oryza sativa; parameters: scale not given here
TRZAWR [3] = assay: Postemergence herbicidal evaluation; format: in vivo
GALAP [4] = assay: Postemergence herbicidal evaluation; format: in vivo
CHEAL [5] = assay: Postemergence herbicidal evaluation; format: in vivo
ORYSAT [6] = assay: Postemergence herbicidal evaluation; format: in vivo, Oryza sativa
IPOSS [7] = assay: Postemergence herbicidal evaluation; format: in vivo
CHEAL [8] = assay: Preemergence herbicidal evaluation; format: in vivo; parameters: scale not given here
IPOSS [9] = assay: Preemergence herbicidal evaluation; format: in vivo; parameters: scale not given here
ECHCG [10] = assay: Preemergence herbicidal evaluation; format: in vivo; parameters: scale not given here
GALAP [11] = assay: Preemergence herbicidal evaluation; format: in vivo; parameters: scale not given here
TRZAWR [12] = assay: Preemergence herbicidal evaluation; format: in vivo; parameters: scale not given here
ZEAMX [13] = assay: Preemergence herbicidal evaluation; format: in vivo; parameters: scale not given here
AMBEL = assay: Preemergence herbicidal evaluation; format: in vivo; parameters: scale not given here
CASOB = assay: Preemergence herbicidal evaluation; format: in vivo; parameters: scale not given here
SETVI [14] = assay: Preemergence herbicidal evaluation; format: in vivo; parameters: scale not given here
ABUTH [15] = assay: Preemergence herbicidal evaluation; format: in vivo; parameters: scale not given here
ZEAMX [16] = assay: Postemergence herbicidal evaluation; format: in vivo
GLXMA [17] = assay: Preemergence herbicidal evaluation; format: in vivo
SETVI [18] = assay: Postemergence herbicidal evaluation; format: in vivo
ABUTH [19] = assay: Postemergence herbicidal evaluation; format: in vivo
ECHCG [20] = assay: Postemergence herbicidal evaluation; format: in vivo

With `Cn1c(C(F)(F)F)cc(=O)n(-c2ccc3snc(-c4ccccc4)c3c2)c1=O` [Compound 4, 1-Methyl-3-(3-phenyl-1,2-benzisothiazol-5-yl)-6-(trifluoromethyl)-2,4(1H,3H)-pyrimidinedione] the herbicidal effect rating (GLXMA [1]; 0.0157-0.0160 kg/ha) was 6.0, the herbicidal effect rating (GLXMA [1]; 0.0313-0.0320 kg/ha) was 5.0 and the herbicidal effect rating (GLXMA [1]; 0.0625-0.0640 kg/ha) was 4.0. For the same molecule, the herbicidal effect rating (GLXMA [1]; 0.1250 kg/ha) was 7.0, the herbicidal effect rating (GLXMA [1]; 0.2500 kg/ha) was 9.0 and the herbicidal effect rating (GLXMA [1]; 0.5000 kg/ha) was 9.0. For the same molecule, the herbicidal effect rating (ORYSAT [2]; 0.0313-0.0320 kg/ha) was 7.0, the herbicidal effect rating (ORYSAT [2]; 0.0620-0.0630 kg/ha) was 7.0 and the herbicidal effect rating (ORYSAT [2]; 0.1250 kg/ha) was 7.0. It also gave a herbicidal effect rating (ORYSAT [2]; 0.2500 kg/ha) of 7.0, a herbicidal effect rating (ORYSAT [2]; 0.5000 kg/ha) of 7.0 and a herbicidal effect rating (TRZAWR [3]; 0.0157-0.0160 kg/ha) of 2.0. It also gave a herbicidal effect rating (TRZAWR [3]; 0.0313-0.0320 kg/ha) of 2.0, a herbicidal effect rating (TRZAWR [3]; 0.0625-0.0640 kg/ha) of 3.0 and a herbicidal effect rating (TRZAWR [3]; 0.1250 kg/ha) of 3.0. It also gave a herbicidal effect rating (TRZAWR [3]; 0.2500 kg/ha) of 3.0, a herbicidal effect rating (TRZAWR [3]; 0.5000 kg/ha) of 4.0 and a herbicidal effect rating (GALAP [4]; 0.0157-0.0160 kg/ha) of 4.0. For the same molecule, the herbicidal effect rating (GALAP [4]; 0.0313-0.0320 kg/ha) was 9.0, the herbicidal effect rating (GALAP [4]; 0.0625-0.0640 kg/ha) was 9.0 and the herbicidal effect rating (GALAP [4]; 0.1250 kg/ha) was 9.0. It also gave a herbicidal effect rating (GALAP [4]; 0.2500 kg/ha) of 9.0, a herbicidal effect rating (GALAP [4]; 0.5000 kg/ha) of 9.0 and a herbicidal effect rating (CHEAL [5]; 0.0157-0.0160 kg/ha) of 9.0. For the same molecule, the herbicidal effect rating (CHEAL [5]; 0.0313-0.0320 kg/ha) was 9.0, the herbicidal effect rating (CHEAL [5]; 0.0625-0.0640 kg/ha) was 9.0 and the herbicidal effect rating (CHEAL [5]; 0.1250 kg/ha) was 9.0. For the same molecule, the herbicidal effect rating (CHEAL [5]; 0.2500 kg/ha) was 9.0, the herbicidal effect rating (CHEAL [5]; 0.5000 kg/ha) was 9.0 and the herbicidal effect rating (ORYSAT [6]; 0.0157-0.0160 kg/ha) was 2.0. It also gave a herbicidal effect rating (ORYSAT [6]; 0.0313-0.0320 kg/ha) of 2.0, a herbicidal effect rating (ORYSAT [6]; 0.0625-0.0640 kg/ha) of 2.0 and a herbicidal effect rating (ORYSAT [6]; 0.1250 kg/ha) of 3.0. For the same molecule, the herbicidal effect rating (ORYSAT [6]; 0.2500 kg/ha) was 3.0, the herbicidal effect rating (ORYSAT [6]; 0.5000 kg/ha) was 4.0 and the herbicidal effect rating (IPOSS [7]; 0.0313-0.0320 kg/ha) was 7.0. For the same molecule, the herbicidal effect rating (IPOSS [7]; 0.0625-0.0640 kg/ha) was 9.0, the herbicidal effect rating (IPOSS [7]; 0.1250 kg/ha) was 9.0 and the herbicidal effect rating (IPOSS [7]; 0.2500 kg/ha) was 9.0. For the same molecule, the herbicidal effect rating (IPOSS [7]; 0.5000 kg/ha) was 9.0, the herbicidal effect rating (CHEAL [8]; 0.0313-0.0320 kg/ha) was 9.0 and the herbicidal effect rating (CHEAL [8]; 0.0620-0.0630 kg/ha) was 9.0. The herbicidal effect rating (CHEAL [8]; 0.1250 kg/ha) was 9.0, the herbicidal effect rating (CHEAL [8]; 0.2500 kg/ha) was 9.0 and the herbicidal effect rating (CHEAL [8]; 0.5000 kg/ha) was 9.0. It also gave a herbicidal effect rating (IPOSS [9]; 0.0313-0.0320 kg/ha) of 2.0, a herbicidal effect rating (IPOSS [9]; 0.0620-0.0630 kg/ha) of 4.0 and a herbicidal effect rating (IPOSS [9]; 0.1250 kg/ha) of 7.0. The herbicidal effect rating (IPOSS [9]; 0.2500 kg/ha) was 9.0, the herbicidal effect rating (IPOSS [9]; 0.5000 kg/ha) was 9.0 and the herbicidal effect rating (ECHCG [10]; 0.0313-0.0320 kg/ha) was 9.0. It also gave a herbicidal effect rating (ECHCG [10]; 0.0620-0.0630 kg/ha) of 9.0, a herbicidal effect rating (ECHCG [10]; 0.1250 kg/ha) of 9.0 and a herbicidal effect rating (ECHCG [10]; 0.2500 kg/ha) of 9.0. The herbicidal effect rating (ECHCG [10]; 0.5000 kg/ha) was 9.0, the herbicidal effect rating (GALAP [11]; 0.0313-0.0320 kg/ha) was 9.0 and the herbicidal effect rating (GALAP [11]; 0.0620-0.0630 kg/ha) was 9.0. For the same molecule, the herbicidal effect rating (GALAP [11]; 0.1250 kg/ha) was 6.0, the herbicidal effect rating (GALAP [11]; 0.2500 kg/ha) was 9.0 and the herbicidal effect rating (GALAP [11]; 0.5000 kg/ha) was 9.0. The herbicidal effect rating (TRZAWR [12]; 0.0313-0.0320 kg/ha) was 2.0, the herbicidal effect rating (TRZAWR [12]; 0.0620-0.0630 kg/ha) was 5.0 and the herbicidal effect rating (TRZAWR [12]; 0.1250 kg/ha) was 7.0. The herbicidal effect rating (TRZAWR [12]; 0.2500 kg/ha) was 7.0, the herbicidal effect rating (TRZAWR [12]; 0.5000 kg/ha) was 7.0 and the herbicidal effect rating (ZEAMX [13]; 0.0313-0.0320 kg/ha) was 3.0. The herbicidal effect rating (ZEAMX [13]; 0.0620-0.0630 kg/ha) was 7.0, the herbicidal effect rating (ZEAMX [13]; 0.1250 kg/ha) was 7.0 and the herbicidal effect rating (ZEAMX [13]; 0.2500 kg/ha) was 7.0. The herbicidal effect rating (ZEAMX [13]; 0.5000 kg/ha) was 7.0, the herbicidal effect rating (AMBEL; 0.0313-0.0320 kg/ha) was 7.0 and the herbicidal effect rating (AMBEL; 0.0620-0.0630 kg/ha) was 7.0. For the same molecule, the herbicidal effect rating (AMBEL; 0.1250 kg/ha) was 9.0, the herbicidal effect rating (AMBEL; 0.2500 kg/ha) was 9.0 and the herbicidal effect rating (AMBEL; 0.5000 kg/ha) was 9.0. The herbicidal effect rating (CASOB; 0.0313-0.0320 kg/ha) was 7.0, the herbicidal effect rating (CASOB; 0.0620-0.0630 kg/ha) was 7.0 and the herbicidal effect rating (CASOB; 0.1250 kg/ha) was 6.0. For the same molecule, the herbicidal effect rating (CASOB; 0.2500 kg/ha) was 9.0, the herbicidal effect rating (CASOB; 0.5000 kg/ha) was 9.0 and the herbicidal effect rating (SETVI [14]; 0.0313-0.0320 kg/ha) was 9.0. It also gave a herbicidal effect rating (SETVI [14]; 0.0620-0.0630 kg/ha) of 9.0, a herbicidal effect rating (SETVI [14]; 0.1250 kg/ha) of 9.0 and a herbicidal effect rating (SETVI [14]; 0.2500 kg/ha) of 9.0. It also gave a herbicidal effect rating (SETVI [14]; 0.5000 kg/ha) of 9.0, a herbicidal effect rating (ABUTH [15]; 0.0313-0.0320 kg/ha) of 9.0 and a herbicidal effect rating (ABUTH [15]; 0.0620-0.0630 kg/ha) of 9.0. It also gave a herbicidal effect rating (ABUTH [15]; 0.1250 kg/ha) of 9.0, a herbicidal effect rating (ABUTH [15]; 0.2500 kg/ha) of 9.0 and a herbicidal effect rating (ABUTH [15]; 0.5000 kg/ha) of 9.0. It also gave a herbicidal effect rating (ZEAMX [16]; 0.0157-0.0160 kg/ha) of 2.0, a herbicidal effect rating (ZEAMX [16]; 0.0313-0.0320 kg/ha) of 2.0 and a herbicidal effect rating (ZEAMX [16]; 0.0625-0.0640 kg/ha) of 3.0. The herbicidal effect rating (ZEAMX [16]; 0.1250 kg/ha) was 3.0, the herbicidal effect rating (ZEAMX [16]; 0.2500 kg/ha) was 3.0 and the herbicidal effect rating (ZEAMX [16]; 0.5000 kg/ha) was 3.0. It also gave a herbicidal effect rating (GLXMA [17]; 0.0313-0.0320 kg/ha) of 3.0, a herbicidal effect rating (GLXMA [17]; 0.0620-0.0630 kg/ha) of 9.0 and a herbicidal effect rating (GLXMA [17]; 0.1250 kg/ha) of 9.0. The herbicidal effect rating (GLXMA [17]; 0.2500 kg/ha) was 7.0, the herbicidal effect rating (GLXMA [17]; 0.5000 kg/ha) was 9.0 and the herbicidal effect rating (SETVI [18]; 0.0157-0.0160 kg/ha) was 8.0. It also gave a herbicidal effect rating (SETVI [18]; 0.0313-0.0320 kg/ha) of 9.0, a herbicidal effect rating (SETVI [18]; 0.0625-0.0640 kg/ha) of 9.0 and a herbicidal effect rating (SETVI [18]; 0.1250 kg/ha) of 9.0. The herbicidal effect rating (SETVI [18]; 0.2500 kg/ha) was 9.0, the herbicidal effect rating (SETVI [18]; 0.5000 kg/ha) was 9.0 and the herbicidal effect rating (ABUTH [19]; 0.0157-0.0160 kg/ha) was 9.0. For the same molecule, the herbicidal effect rating (ABUTH [19]; 0.0313-0.0320 kg/ha) was 9.0, the herbicidal effect rating (ABUTH [19]; 0.0625-0.0640 kg/ha) was 9.0 and the herbicidal effect rating (ABUTH [19]; 0.1250 kg/ha) was 9.0. For the same molecule, the herbicidal effect rating (ABUTH [19]; 0.2500 kg/ha) was 9.0, the herbicidal effect rating (ABUTH [19]; 0.5000 kg/ha) was 9.0 and the herbicidal effect rating (ECHCG [20]; 0.0157-0.0160 kg/ha) was 2.0. It also gave a herbicidal effect rating (ECHCG [20]; 0.0313-0.0320 kg/ha) of 5.0, a herbicidal effect rating (ECHCG [20]; 0.0625-0.0640 kg/ha) of 7.0 and a herbicidal effect rating (ECHCG [20]; 0.1250 kg/ha) of 8.0. The herbicidal effect rating (ECHCG [20]; 0.2500 kg/ha) was 8.0 and the herbicidal effect rating (ECHCG [20]; 0.5000 kg/ha) was 9.0.
